# Assay results as given in paper PMC11156913, “New sulfonamide-based glycosides incorporated 1,2,3-triazole as cytotoxic agents through VEGFR-2 and carbonic anhydrase inhibitory activity” (Scientific Reports, 2024).
# “And” between values parts separate entries of the source, which are not always exact repeats. Equal values may be shown once.
# Legend:
# [1] = tested on: lung A-549 cancer cell line; experiment: In vitro cytotoxic activity (MTT assay), A-549
# Method: Exponentially, cells were placed in 10^4 cells/ well for 24 h, and then add fresh medium which containing different concentration of the tested sample. Serial two-fold dilution of the tested sample were added using a multichannel pipette. […] Rinse the wells using water until no stain. After that, add 30% glacial acetic acid to all wells with shaking plates on Microplate reader (TECAN, Inc.) to measure the absorbance, using a test wavelength of 490 nm. Besides, compare the treated samples with the control cell.
# hCA XII = molecular target: T1, hCA XII (Homo sapiens, UniProt O43570); experiment: Carbonic anhydrase inhibition, stopped-flow CO2 hydration, hCA XII; format: biochemical; conditions: read-out: IC50 (mean ± SD) Carbonic anhydrase isoforms hCA XII
# T1 construct: made in house
# T1 sequence (O43570 25-354): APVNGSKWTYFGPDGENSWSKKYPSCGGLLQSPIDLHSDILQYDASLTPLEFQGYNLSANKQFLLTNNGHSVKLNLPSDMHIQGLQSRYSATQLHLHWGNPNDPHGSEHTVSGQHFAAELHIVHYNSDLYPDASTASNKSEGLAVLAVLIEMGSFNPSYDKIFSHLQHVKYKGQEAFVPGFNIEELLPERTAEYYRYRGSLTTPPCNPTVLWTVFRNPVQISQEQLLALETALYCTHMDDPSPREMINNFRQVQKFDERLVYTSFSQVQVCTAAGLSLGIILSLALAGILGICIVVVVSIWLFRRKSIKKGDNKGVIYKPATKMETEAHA
# Method: (§1) There was further information in the supplemental file.
# (§2) An applied photophysics stopped-flow instrument was used for assaying the CA-catalyzed CO2 hydration activity. […] The CO2 concentrations ranged from 1.7 to 17 mM for the determination of the kinetic parameters and inhibition constants. For each inhibitor, at least six traces of the initial 5–10% of the reaction were used for determining the initial rate. The uncatalyzed rates were determined in the same manner and subtracted from the total observed rates. Stock solutions of inhibitor (0.1 mM) were prepared in distilled-deionized water, and dilutions up to 0.01 nM were done thereafter with distilled-deionized water. Inhibitor and enzyme solutions were preincubated together for 15 min at room temperature before assay in order to allow for the formation of the E-I complex. The inhibition constants were obtained by nonlinear least-squares methods using PRISM 3, and the Cheng –Prusoff equation, and represent the mean from at least three different determinations. All CA isoforms were recombinant ones obtained in-house.
# MCF-7 cells [2] = experiment: Cell cycle analysis by flow cytometry (PI); format: cell-based, human; conditions: 21.15 μM, 24 h, 48 h (Table S6 title)
# Method: (§3) The cells were further examined through flow cytometry with annexin-V staining (Figs. 5–7).
# (§4) The examination of cell cycle analysis and apoptosis was explained[66] with the use of flow cytometry. Benzenesulfonamide-1,2,3-triazole-glycosides 9 was applied to MCF-7 cells for a duration of 24 h, and the cells were then incubated at 37 °C. Further details were included in the supplemental file.
# (§5) Cell cycle analysis and apoptosis study were carried out using flow cytometry. MCF-7 cells were seeded at 8×10^4 and incubated at 37°C in 5% CO2 overnight. After treatment with the tested compound 10 for 24 h, cell pellets were collected and centrifuged (300 g, 5 min). For cell cycle analysis cell pellets were fixed with 70% ethanol on ice for 15 min and collected again. The pellets were incubated with propidium iodide (PI) staining solution at room temperature for 1 h and analyzed by a Gallios flow cytometer (Beckman Coulter, Brea, CA, USA). Apoptosis detection was carried out by FITC AnnexinV/PI commercial kit (Becton Dickenson, Franklin Lakes, NJ, USA) following the manufacturer protocol. The samples were analyzed by fluorescence-activated cell sorting (FACS) with a Gallios flow cytometer (Beckman Coulter, Brea, CA, USA) within 1 h after staining. Data were analyzed using Kaluza v 1.2 (Beckman Coulter).
# [3] = tested on: colorectal HCT-116 cancer cell line; experiment: In vitro cytotoxic activity (MTT assay), HCT-116; format: cell-based, human
# Description: (§6) The supplemental file contained extra details.
# VEGFR-2 = VEGFR-2 (Homo sapiens, UniProt P35968); experiment: In vitro inhibitory assessment against VEGFR-2 (ELISA, MCF-7 cell homogenates); format: cell-based; conditions: read-out: IC50 (mean ± SD) VEGFR-2
# Chain of VEGFR-2 (P35968 20-1356): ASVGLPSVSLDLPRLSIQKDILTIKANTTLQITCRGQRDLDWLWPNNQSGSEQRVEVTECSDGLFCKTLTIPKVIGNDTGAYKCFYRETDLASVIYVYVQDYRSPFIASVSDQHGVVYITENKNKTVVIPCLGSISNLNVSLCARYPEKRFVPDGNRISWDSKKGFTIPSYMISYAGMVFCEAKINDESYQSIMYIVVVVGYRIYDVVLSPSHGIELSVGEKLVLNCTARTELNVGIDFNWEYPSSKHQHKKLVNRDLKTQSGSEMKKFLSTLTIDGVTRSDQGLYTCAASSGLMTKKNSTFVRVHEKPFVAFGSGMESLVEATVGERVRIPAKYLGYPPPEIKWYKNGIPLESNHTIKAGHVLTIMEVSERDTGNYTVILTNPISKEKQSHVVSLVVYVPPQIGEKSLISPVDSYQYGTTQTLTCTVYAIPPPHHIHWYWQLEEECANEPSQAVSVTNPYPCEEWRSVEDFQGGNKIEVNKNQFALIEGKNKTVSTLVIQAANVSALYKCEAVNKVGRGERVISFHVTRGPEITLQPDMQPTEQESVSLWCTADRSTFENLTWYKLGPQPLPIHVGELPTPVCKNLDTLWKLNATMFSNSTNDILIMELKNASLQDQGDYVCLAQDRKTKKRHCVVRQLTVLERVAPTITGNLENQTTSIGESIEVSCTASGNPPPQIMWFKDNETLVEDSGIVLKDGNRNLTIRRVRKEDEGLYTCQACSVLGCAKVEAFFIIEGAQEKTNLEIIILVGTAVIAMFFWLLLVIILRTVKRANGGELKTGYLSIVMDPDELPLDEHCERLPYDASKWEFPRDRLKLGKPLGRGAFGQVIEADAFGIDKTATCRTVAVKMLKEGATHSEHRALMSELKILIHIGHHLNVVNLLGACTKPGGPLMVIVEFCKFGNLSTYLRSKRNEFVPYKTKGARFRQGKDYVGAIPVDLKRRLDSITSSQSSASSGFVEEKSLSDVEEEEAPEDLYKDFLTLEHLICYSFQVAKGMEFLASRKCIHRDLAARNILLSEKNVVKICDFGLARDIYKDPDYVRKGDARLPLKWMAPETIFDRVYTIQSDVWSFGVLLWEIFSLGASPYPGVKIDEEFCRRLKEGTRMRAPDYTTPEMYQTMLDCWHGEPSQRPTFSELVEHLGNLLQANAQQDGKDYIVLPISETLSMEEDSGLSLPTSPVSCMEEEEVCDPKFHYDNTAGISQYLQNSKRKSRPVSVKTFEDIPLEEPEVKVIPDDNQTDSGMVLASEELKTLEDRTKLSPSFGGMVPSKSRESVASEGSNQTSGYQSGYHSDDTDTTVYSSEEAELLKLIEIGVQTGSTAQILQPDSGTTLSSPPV
# Method: as §1
# The cells were harvested and the homogenates were prepared in saline using a tight pestle homogenizer until complete cell disruption. The kit uses a double-antibody sandwich enzyme-linked immunosorbent assay (ELISA) to determine the level of human VEGFR-2 in samples. A monoclonal antibody for VEGFR-2 was pre-coated onto 96-well plates. The test samples are added to the wells and a biotinylated detection polyclonal antibody from goat specific for VEGFR-2 was added subsequently followed by washing with PBS buffer. Avidin-Biotin-Peroxidase complex was added and the unbound conjugates were washed away with PBS buffer. HRP substrate TMB was used to visualize HRP enzymatic reaction. TMB was catalyzed by HRP to produce a blue color product that changed into yellow after adding acidic stop solution. The density of yellow color is proportional to the human VEGFR-2 amount of the sample captured in the plate. The chroma of color and the concentration of the human VEGFR-2 of the samples were positively correlated and the optical density was determined at 450 nm. The level of human VEGFR-2 in samples was calculated (pg/ml) as duplicate determinations from the standard curve. Percent inhibition was calculated in comparison to control untreated cells.
# [4] = tested on: liver HepG-2 cancer cell line; experiment: In vitro cytotoxic activity (MTT assay), HepG-2
# Description: as §6
# hCA IX = molecular target: T2, hCA IX (Homo sapiens, UniProt Q16790); experiment: Carbonic anhydrase inhibition, stopped-flow CO2 hydration, hCA IX; format: biochemical; conditions: read-out: IC50 (mean ± SD) Carbonic anhydrase isoforms hCA IX
# T2 construct: made in house
# Method: as §1, §2
# [5] = tested on: breast MCF-7 cancer cell line; experiment: In vitro cytotoxic activity (MTT assay), MCF-7; format: cell-based, human
# Description: as §6
# Bax = Bax level in MCF-7 cells; format: cell-based, human; conditions: 24 h, 21.15 μM
# Description: (§7) Additionally, compound 9 boosted the p53 protein level by 7.4 times in MCF-7 treated cells compared to 125.40 Pg/mL in control cells (Table 3).
# (§8) Bax, Bcl-2 and p53 levels in MCF-7 cells were clarified utilising the previously reported approach for the promising benzenesulfonamide-1,2,3-triazole-glycosides 9.
# (§9) The levels of the apoptotic marker Bax and anti-apoptotic marker Bcl-2 were estimated using BIO RAD iScript TM One-Step RT-PCR kit with SYBR® Green. The procedure of the used kit was done according to the manufacturer’s instructions.
# [6] = tested on: retinal pigment epithelial normal RPE-1 cell line; experiment: Cytotoxic activity (MTT assay) against normal cell line RPE-1; format: cell-based; conditions: Homo sapiens, normal RPE-1 cells, read-out: IC50 (mean ± SD) RPE-1
# Description: Furthermore, the MTT assay was utilized to estimate the cytotoxic activity of the extremely potent derivatives 4, 7 and 9 against the normal cell line RPE-1, with the aim of examining their safety profiles (Table 1). […] They could therefore be thought of as safe cytotoxic agents.
# as §6
# MCF-7 cells [7] = experiment: Apoptosis detection, Annexin V-FITC/PI flow cytometry; format: cell-based, human; conditions: 21.15 μM, 24 h
# Method: as §3, §4, §5
# p53 = p53 level in MCF-7 cells (ELISA); format: cell-based, human; conditions: 24 h, 21.15 μM
# Method: as §7, §8
# Human p53 present in MCF-7 cells was determined; using Human p53 ELISA-Kit (CS0070 Sigma) read using spectrophotometer at 450 nm against untreated control cells (negative control) applying the standard protocols of the manufacturers. The samples or standard having human p53 bind to antibodies adsorbed to the microwells. Addition of biotin-conjugated was followed by incubation and addition of dispense of unbound biotin-conjugated streptavidin HRP. Then, the reaction was terminated by adding acid, and the absorbance was measured at 450 nm.
# Bcl-2 = Bcl-2 level in MCF-7 cells; format: cell-based, human; conditions: 24 h, 21.15 μM
# Description: as §7, §8, §9
smiles,measurement,setting,value
"CC(=O)O[C@@H]1[C@@H](OC(C)=O)[C@H](OCc2cn(-c3ccc(S(=O)(=O)NC4CCCCC4)cc3)nn2)OC[C@H]1OC(C)=O [Compound 9, N-cyclohexyl-4-(4-([2,3,4-tri-O-acetyl-β-D-xylopyranosyl]oxymethyl)-1H-1,2,3-triazol-1-yl)benzenesulfonamide]",percentage cytotoxicity on A-549,[1]; 12.5 µM,43.13±0.73%
same,percentage cytotoxicity on A-549,[1]; 25 µM,47.60±0.32%
same,percentage cytotoxicity on A-549,[1]; 50 µM,75.53±1.16%
same,percentage cytotoxicity on A-549,[1]; 100 µM,90.00±0.95%
same,inhibition at 100 µM,"[1]; Homo sapiens, A549, 48 h, read-out: % inhibition ± SD A-549",90 ± 0.95%
same,IC50,"[1]; Homo sapiens, A549, read-out: IC50 (mean ± SD) A-549",19.8 ± 0.65 µM
same,IC50,hCA XII,0.0032 µM
same,%G0-G1,MCF-7 cells [2],52.69%
same,%G2/M,MCF-7 cells [2],29.98%
same,%S,MCF-7 cells [2],17.33%
same,percentage cytotoxicity on HCT-116,[3]; 12.5 µM,34.51±0.44%
same,percentage cytotoxicity on HCT-116,[3]; 25 µM,53.50±0.93%
same,percentage cytotoxicity on HCT-116,[3]; 50 µM,67.00±0.12%
same,percentage cytotoxicity on HCT-116,[3]; 100 µM,75.70±0.48%
same,inhibition at 100 µM,"[3]; Homo sapiens, HCT-116, 100 µM, 48 h, read-out: % inhibition ± SD HCT-116",75.7 ± 0.48%
same,IC50,"[3]; Homo sapiens, HCT-116 cells, MTT, read-out: IC50 (mean ± SD) HCT-116",23.6 ± 0.22 µM
same,IC50,VEGFR-2,0.38 ± 0.14 µM
same,percentage cytotoxicity on HepG-2,[4]; 12.5 µM,58.20±1.50%
same,percentage cytotoxicity on HepG-2,[4]; 25 µM,63.70±2.29%
same,percentage cytotoxicity on HepG-2,[4]; 50 µM,82.59±0.87%
same,percentage cytotoxicity on HepG-2,[4]; 100 µM,82.60±1.73%
same,IC50,"[4]; Homo sapiens, HepG2, read-out: IC50 (mean ± SD) HepG-2",8.39 ± 0.2 µM
same,IC50,hCA IX,0.04 µM
same,percentage cytotoxicity on MCF-7,[5]; 12.5 µM,32.60±6.13%
same,percentage cytotoxicity on MCF-7,[5]; 25 µM,52.27±0.43%
same,percentage cytotoxicity on MCF-7,[5]; 50 µM,83.30±1.87%
same,percentage cytotoxicity on MCF-7,[5]; 100 µM,92.73±1.04%
same,inhibition at 100 µM,"[5]; Homo sapiens, MCF7, 100 µM, 48 h, read-out: % inhibition ± SD MCF-7",92.7 ± 1.04%
same,IC50,"[5]; Homo sapiens, MCF7, MCF-7 cells, MTT, read-out: IC50 (mean ± SD) MCF-7",21.2 ± 2.45 µM
same,Bax,Bax,271.45 pg/mL and 271.45 ± 0.25 pg/mL
same,Bax/Bcl-2,Bax,83.01
same,increase in Bax levels compared to untreated control cells,Bax,6.2 fold
same,IC50,[6],87.22 ± 0.73 µM
same,Apoptosis Early,MCF-7 cells [7],15.77%
same,Apoptosis Late,MCF-7 cells [7],9.75%
same,Apoptosis Total,MCF-7 cells [7],29.51
same,Necrosis,MCF-7 cells [7],3.99%
same,P53,p53,930.69 ± 0.55 pg/mL
same,p53 protein level boosted versus control,p53,7.4 times
same,Bcl-2,Bcl-2,3.27 ng/mL and 3.27 ± 0.18 ng/mL
same,Bcl-2 protein downregulated versus control,Bcl-2,2.6 times
